Assay results reported in paper PMC8156151 (The European Respiratory Journal, 2021).
Like-named read-outs stand apart in the source and are kept apart here.

What was measured:
[1] = Plasma pharmacokinetics, part 1 (healthy subjects); format: in vivo, human
Description: Subjects were discharged 24 h post-dose (day 2) provided there were no safety concerns, and returned for three outpatient visits on days 3, 8 and 14 post-dose, with a post-study follow-up between days 26 and 30. Safety and PK assessments were made at predetermined time-points.
Full plasma PK profiles were conducted on days 1 (first day of dosing) and 14 (last day of dosing). […] Standard noncompartmental methods were applied to derive PK parameters using Phoenix WinNonlin version 6.3 (Certara, Sheffield, UK). […] Drug compartment measurements in BAL alveolar macrophages and fluid were determined as described previously.

IL-13 = test: Plasma biomarker IL-13; format: in vivo, human; details: for IL-13 raw data, Mean (SD) / IL-13 least square means % baseline±SEM: IPF patients
Description: (§1) All patients, investigators, sites and study sponsor personnel were blinded to the study group assignments throughout the study. Patients underwent study-specific assessments on days 2, 3, 7, 14 and 15, and a post-study assessment was carried out 26–30 days after the last day of the study period. Assessments included vital signs (supine blood pressure, pulse, oxygen saturation, oral temperature and respiratory rate), spirometry, 12-lead ECG, physical examination, laboratory safety screen (haematology, biochemistry, urinalysis and urinary drugs of abuse screen) and blood sampling for PK measurements. All adverse events and concomitant medications were recorded from the time of the screening visit until the post-study follow-up visit. BAL was performed at day −1 (24 h before the first dose) and at day 14 (2 h after the last dose). The BAL procedure was performed as per international guidelines. Briefly, 240 mL of 0.9% saline at room temperature was instilled in 40 mL aliquots into the right middle lobe and aspirated by suction after each aliquot.
(§2) BAL cells were separated from fluid by centrifugation, and cells were collected, stained with antibodies (supplementary material) and then fixed before analysis using a LSR Fortessa flow cytometer (Becton Dickinson, Franklin Lakes, NJ, USA). Data were analysed using FlowJo software (Tree Star, Ashland, OR, USA). Macrophages were identified as having high side scatter properties and human leukocyte antigen-DR positivity. Gal-3 expression (mean fluorescence intensity) was determined from the macrophage gate (supplementary figures S1 and S2). […] Samples were analysed by magnetic Luminex assay (R&D Systems, Minneapolis, MN, USA) or ELISA.
(§3) For part 2 of the study, placebos were combined from the three dose-specific cohorts into a pooled control group (n=9). For alveolar macrophage Gal-3 expression and the plasma biomarkers, ANCOVA was performed for percentage of baseline ((day 14/day 1)×100). The ANCOVA model included effects for treatment group and baseline (day 1) value. […] An additional analysis including dose as a continuous covariate was also performed. The Pearson correlation coefficient (r) and associated p-value were calculated for percentage of baseline and day 14 values between plasma biomarkers and alveolar macrophage Gal-3 expression. […] The analysis is exploratory and there was no pre-planned adjustment for multiple testing; the study was not powered for this. Alveolar macrophage Gal-3 expression was considered the primary exploratory analysis with the pre-selected biomarkers secondary. A Bonferroni correction for multiple testing of the secondary end-points comparing the 10 mg group with placebo gives a critical value of 0.0063. Data are presented as the difference in least square means with 95% confidence interval and p-value unless otherwise stated. All analyses were performed using SAS version 9.4 (SAS Institute, Cary, NC, USA). […]

CCL5 (RANTES) = test: Plasma biomarker CCL5; format: in vivo, human; details: for CCL5 (RANTES) raw data, Mean (SD) / CCL5 (RANTES) least square means % baseline±SEM: IPF patients
Description: as §1, §2, §3

Gal-3 = Gal-3 (Homo sapiens, UniProt P17931); details: for Galectin-3 (BAL) raw data, Mean (SD): Day 14
Description: as §1, §2
For part 2 of the study, placebos were combined from the three dose-specific cohorts into a pooled control group (n=9). For alveolar macrophage Gal-3 expression and the plasma biomarkers, ANCOVA was performed for percentage of baseline ((day 14/day 1)×100). The ANCOVA model included effects for treatment group and baseline (day 1) value. […] An additional analysis including dose as a continuous covariate was also performed. The Pearson correlation coefficient (r) and associated p-value were calculated for percentage of baseline and day 14 values between plasma biomarkers and alveolar macrophage Gal-3 expression. […] The analysis is exploratory and there was no pre-planned adjustment for multiple testing; the study was not powered for this. Alveolar macrophage Gal-3 expression was considered the primary exploratory analysis with the pre-selected biomarkers secondary. A Bonferroni correction for multiple testing of the secondary end-points comparing the 10 mg group with placebo gives a critical value of 0.0063. Data are presented as the difference in least square means with 95% confidence interval and p-value unless otherwise stated. All analyses were performed using SAS version 9.4 (SAS Institute, Cary, NC, USA).
BAL cells were separated from fluid by centrifugation and BAL cells were collected, stained with antibodies then fixed before analysis using a LSRFortessa™ flow cytometer (Becton Dickinson, NJ, USA). Data were analysed using FlowJo software (Becton Dickinson, NJ, USA). After exclusion of doublets and debris a sequential gating strategy was employed to identify cell populations based on surface marker expression. The antibodies used were Gal-3-FITC, CD19-PE, HLA-DR PEcy7, CD14-APC, CD16-pacific-blue, CD11b perCPcy5.5, […]
Biolegend except Gal-3-FITC which was from Cedarlane. Macrophages were identified as having high side scatter properties and HLA-DR positivity. Gal-3 expression (mean fluorescence intensity, MFI) was determined from the macrophage gate. Macrophage subsets were classed as M1, M2a and M2c based on the relative expression of CD206 and CD163 as […]
ve gate the relative % of neutrophils (CD19-/CD16+), B cells (CD19+), natural killer (NK) cells (CD56+), NK T-cells (NKT) cells (CD56+/CD3+), CD4 T cells (CD3+/CD4+) and CD8 T cells

[2] = human, inhaled or intranasal, single inhaled 1.5 mg, mean±SD
[3] = human, inhaled or intranasal, single inhaled 3 mg, mean±SD
[4] = human, inhaled or intranasal, single inhaled 10 mg, mean±SD
[5] = human, inhaled or intranasal, single inhaled 20 mg, mean±SD
[6] = human, inhaled or intranasal, single inhaled 50 mg, mean±SD

Sequence of Gal-3 (P17931 whole entry): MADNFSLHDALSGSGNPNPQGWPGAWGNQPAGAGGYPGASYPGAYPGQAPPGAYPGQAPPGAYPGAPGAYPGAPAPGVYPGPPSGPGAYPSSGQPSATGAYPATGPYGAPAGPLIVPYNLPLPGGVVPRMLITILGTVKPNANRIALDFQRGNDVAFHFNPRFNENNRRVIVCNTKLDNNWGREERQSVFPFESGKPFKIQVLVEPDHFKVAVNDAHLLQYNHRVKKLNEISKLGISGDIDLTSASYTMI

OC[C@H]1O[C@@H](S[C@@H]2O[C@H](CO)[C@H](O)[C@H](n3cc(-c4cccc(F)c4)nn3)[C@H]2O)[C@H](O)[C@@H](n2cc(-c3cccc(F)c3)nn2)[C@H]1O [TD139]
AUC(0-inf) [1, 2]: 17.9 ± 14 ng·h/mL
half-life [1, 2]: 1.13 ± 0.63 h
Cmax ([1]; human, inhaled or intranasal, single inhaled 1.5 mg, mean±SD, read-out: Cmax): 2.37 ± 1.48 ng/mL
AUC(0-inf) [1, 3]: 70.8 ± 22.7 ng·h/mL
half-life [1, 3]: 3 ± 0.82 h
Cmax ([1]; human, inhaled or intranasal, single inhaled 3 mg, mean±SD, read-out: Cmax): 8.21 ± 2.67 ng/mL
AUC(0-inf) [1, 4]: 184 ± 64.5 ng·h/mL
half-life [1, 4]: 1.19 ± 0.94 h
Cmax ([1]; human, inhaled or intranasal, single inhaled 10 mg, mean±SD, read-out: Cmax): 22.6 ± 8.69 ng/mL
AUC(0-inf) [1, 5]: 544 ± 114 ng·h/mL
half-life [1, 5]: 1.31 ± 1.8 h
Cmax ([1]; human, inhaled or intranasal, single inhaled 20 mg, mean±SD, read-out: Cmax): 81.1 ± 27 ng/mL
AUC(0-inf) [1, 6]: 1160 ± 532 ng·h/mL
half-life [1, 6]: 0.81 ± 0.8 h
Cmax ([1]; human, inhaled or intranasal, single inhaled 50 mg, mean±SD, read-out: Cmax): 126 ± 43.3 ng/mL
Cmax ([1]; single inhaled 0.15 mg, BLQ: below limit of quantification (0.5 ng·mL^−1)): BLQ
IL-13 difference in least square means % baseline (95% CI) (IL-13; 10 mg vs placebo, ANCOVA): −7.6 (−30.4–15.2) % baseline
IL-13 raw data, Mean (SD) (IL-13; Day 14, 0.3 mg): 1219.4 (155.7) pg/ml
IL-13 raw data, Mean (SD) (IL-13; Day 14, 3 mg): 1476.6 (140.99) pg/ml
IL-13 raw data, Mean (SD) (IL-13; Day 14, 10 mg): 1358.8 (149.34) pg/ml
IL-13 least square means % baseline±SEM (IL-13; day 14, 0.3 mg once daily): 87.4±8.8 % baseline
IL-13 least square means % baseline±SEM (IL-13; day 14, 3 mg once daily): 100.4±9.5 % baseline
IL-13 least square means % baseline±SEM (IL-13; day 14, 10 mg once daily): 97.6±8.8 % baseline
CCL5 (RANTES) difference in least square means % baseline (95% CI) (CCL5 (RANTES); 10 mg vs placebo, ANCOVA): −54.1 (−147–38.8) % baseline
CCL5 (RANTES) raw data, Mean (SD) (CCL5 (RANTES); Day 14, 0.3 mg): 47658.1 (27017.8) pg/ml
CCL5 (RANTES) raw data, Mean (SD) (CCL5 (RANTES); Day 14, 3 mg): 75675.6 (92820.57) pg/ml
CCL5 (RANTES) raw data, Mean (SD) (CCL5 (RANTES); Day 14, 10 mg): 33994.2 (29435.9) pg/ml
CCL5 (RANTES) least square means % baseline±SEM (CCL5 (RANTES); day 14, 0.3 mg once daily): 62.3±37.1 % baseline
CCL5 (RANTES) least square means % baseline±SEM (CCL5 (RANTES); day 14, 3 mg once daily): 115.1±35.1 % baseline
CCL5 (RANTES) least square means % baseline±SEM (CCL5 (RANTES); day 14, 10 mg once daily): 75.8±35.8 % baseline
Gal-3 expression on BAL macrophages, percentage of baseline at day 14, difference compared with placebo (Gal-3; 3 mg dose group): −38.66%
Gal-3 expression on BAL macrophages, percentage of baseline at day 14, difference compared with placebo (Gal-3; 10 mg dose group): −44.63%
Gal-3 (BAL) Bayesian probability of effect (Gal-3; BAL macrophages, 10 mg vs placebo): 99.14
Gal-3 (BAL) difference in least square means % baseline (95% CI) (Gal-3; BAL macrophages, 10 mg vs placebo, ANCOVA): −44.6 (−80.4– −8.8) % baseline
Galectin-3 (BAL) raw data, Mean (SD) (Gal-3; IPF patients, BAL macrophages, 0.3 mg): 7794.8 (2990.48) pg/ml
Galectin-3 (BAL) raw data, Mean (SD) (Gal-3; IPF patients, BAL macrophages, 3 mg): 8058.6 (3001.05) pg/ml
Galectin-3 (BAL) raw data, Mean (SD) (Gal-3; IPF patients, BAL macrophages, 10 mg): 5237 (2033.86) pg/ml
Gal-3 (BAL) least square means % baseline±SEM (Gal-3; IPF patients, BAL macrophages, day 14, 0.3 mg once daily): 67.9±12.1 % baseline
Gal-3 (BAL) least square means % baseline±SEM (Gal-3; IPF patients, BAL macrophages, day 14, 3 mg once daily): 43.0±11.7 % baseline
Gal-3 (BAL) least square means % baseline±SEM (Gal-3; IPF patients, BAL macrophages, day 14, 10 mg once daily): 37.1±13.5 % baseline
Galectin-3 (BAL), analysis including dose as a continuous covariate: Estimate (Gal-3; IPF patients, BAL macrophages, percentage of baseline): -4.19
correlation between TD139 in AMs and percentage of baseline in surface macrophage Gal-3 (r) (Gal-3; IPF patients, day 14): −0.63 (95% CI −0.86– −0.18)
Emax (AM surface Gal-3 percentage of baseline) (Gal-3; fitted maximum effect model vs macrophage TD139 concentration, (95% CI)): 4.5 (−44.0–35.9)
